Results from patent publication US10604512B2, “3-(1H-indol-2-yl)-1H-indazoles and therapeutic uses thereof” (Samumed, LLC, priority 2015, dated 2020).

What was measured:
IL-6 = assay: Inhibition of IL-6 in LPS-stimulated THP-1 human monocyte cells (HTRF); assay type: cell-based; details: for EC50: IL-6 inhibition, LPS-stimulated THP-1 cells, HTRF; for inhibition at 10 µM: THP-1, printed beside >10 μM EC50, top concentration 10 μM, meaning not given, read-out: percentage in parentheses after EC50 >10
In short: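 THP-1 cells serum-reduced (1% FBS, 24 h), then 5000 cells/well preincubated 2 h with compound (10-point 1:3 series from 10 μM, 0.1% DMSO) before 500 ng/mL LPS for 22 h at 37 °C. Secreted IL-6 quantified by HTRF 665/620 ratio; DMSO-normalised duplicates fitted to four-parameter EC50; above 10 μM, % inhibition at 10 μM given.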

[1] = test system: primary human mesenchymal stem cells (hMSCs); assay: Induction of chondrogenesis in primary human mesenchymal stem cells (nodule imaging, Rhodamine B / Nile Red); assay type: cell-based
In short: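 hMSCs (passage 3–6) in incomplete chondrogenic induction medium dosed at 2700–10 nM (96-well) or 5000–2.2 nM (384-well), 0.03% DMSO, for 6 days at 37 °C. Fixed cells stained with Rhodamine B/Nile Red and nodule area imaged, normalized to DMSO wells (fold change). EC50 set against TGF-β3 (10 ng/mL); maximum activity and its dose also reported.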

EC50 (IL-6) [nM]	EC50 ([1]; concentration required to induce 50% levels of chondrogenesis vs TGF-β3 positive control, read-out: Conc (nM) of 50% TGF-β3 activity) [nM]	SMILES	inhibition at 10 µM (IL-6) [%]	Emax ([1]; maximum chondrogenesis activity relative to TGF-β3 (10 ng/mL) positive control, read-out: Max. Activity as % TGF-β3 activity) [%]
31		Fc1cccc(-c2cccc3[nH]c(-c4n[nH]c5ccc(-c6ccncc6)cc45)cc23)c1 [Compound 18, 3-(4-(3-Fluorophenyl)-1H-indol-2-yl)-5-(pyridin-4-yl)-1H-indazole]		
> 10000		CC(C)(C)CC(=O)Nc1cncc(-c2ccc3[nH]nc(-c4cc5c(-c6ccsc6)cccc5[nH]4)c3c2)c1 [Compound 296, 3,3-Dimethyl-N-(5-(3-(4-(thiophen-3-yl)-1H-indol-2-yl)-1H-indazol-5-yl)pyridin-3-yl)butanamide]	31.6	
> 10000		O=C(Nc1cncc(-c2ccc3[nH]nc(-c4cc5c(-c6ccsc6)cccc5[nH]4)c3c2)c1)C1CCCCC1 [Compound 303, N-(5-(3-(4-(Thiophen-3-yl)-1H-indol-2-yl)-1H-indazol-5-yl)pyridin-3-yl) cyclohexanecarboxamide]	43.9	
519	10	Nc1cncc(-c2ccc3[nH]nc(-c4cc5c(-c6ccoc6)cccc5[nH]4)c3c2)c1 [Compound 311, 5-(3-(4-(Furan-3-yl)-1H-indol-2-yl)-1H-indazol-5-yl)pyridin-3-amine]		197
304		O=C(Cc1ccccc1)Nc1cncc(-c2ccc3[nH]nc(-c4cc5c(-c6ccoc6)cccc5[nH]4)c3c2)c1 [Compound 318, N-(5-(3-(4-(Furan-3-yl)-1H-indol-2-yl)-1H-indazol-5-yl)pyridin-3-yl)-2-phenylacetamide]		
7580		c1cc(-c2ccoc2)c2cc(-c3n[nH]c4ccc(-c5cncc(CNCC6CCCC6)c5)cc34)[nH]c2c1 [Compound 333, 1-Cyclopentyl-N-((5-(3-(4-(furan-3-yl)-1H-indol-2-yl)-1H-indazol-5-yl)pyridin-3-yl)methyl)methanamine]		
